From patent US12371454B2, “Cyclic peptide compound having Kras inhibitory action” (priority 2019, dated 2025)
Starred links: 1 amine or outer side, 2 acyl side, 3 side chain; linkers in the order of their positions; H or OH if unused. Positions of bridges follow the written chain, without caps; N, C: chain ends. Non-standard residues stand in square brackets, D forms with d. Residues, ends and D or L forms follow the SMILES beside them. *: point of attachment. hPhe(3-Cl-4-CF3) = N[C@@H](CCc1ccc(C(F)(F)F)c(Cl)c1)C(=O)O; NMePhe(4-CF3) = CN[C@@H](Cc1ccc(C(F)(F)F)cc1)C(=O)O; NMePhe(4-Cl) = CN[C@@H](Cc1ccc(Cl)cc1)C(=O)O; NMedβ3hAla = C[C@H](CC(=O)[*:2])N(C)[*:1]; Leu(4,5-dehydro) = C=C(C)C[C@H](N)C(=O)O; NMeAla(cPent) = CN[C@@H](CC1CCCC1)C(=O)O; Phe(3-Br) = N[C@@H](Cc1cccc(Br)c1)C(=O)O; NMeGly(cPent) = CN[C@H](C(=O)O)C1CCCC1; Phe(3-I) = N[C@@H](Cc1cccc(I)c1)C(=O)O; X10 = CC(C)=CC[C@H](N[*:1])C(=O)[*:2]; NMeY = CN[C@@H](Cc1ccc(O)cc1)C(=O)O; NMeCha = CN[C@@H](CC1CCCCC1)C(=O)O; NMeAoc(2) = CCCCCC[C@H](NC)C(=O)O; dNMeF = CN[C@H](Cc1ccccc1)C(=O)O; hPhe = N[C@@H](CCc1ccccc1)C(=O)O; NMeD = CN[C@@H](CC(=O)O)C(=O)O; AllylGly = C=CC[C@H](N)C(=O)O; NMeL = CN[C@@H](CC(C)C)C(=O)O; Cba = N[C@@H](CC1CCC1)C(=O)O; hLeu = CC(C)CC[C@H](N)C(=O)O; NMeA = CN[C@@H](C)C(=O)O; NMeAib = CNC(C)(C)C(=O)O; Nle = CCCC[C@H](N)C(=O)O; Piperidide = C1CCN(*)CC1; Pra = C#CC[C@H](N)C(=O)O; Pyrrolidide = C1CCN(*)C1; Ac5c = NC1(C(=O)O)CCCC1; Aze = O=C(O)[C@@H]1CCN1; Sar = CNCC(=O)O

Target: T1, Kras and SOS1 (biotin-tagged human Kras loaded with GDP, His-tagged human SOS1) (Homo sapiens, UniProt P01116, G12D)
T1 construct: made in house; host or cells: E. coli (stated for Kras only)
Test: Protein-protein interaction inhibition between Kras and SOS1 (KrasGl2D-SOS PPI) using AlphaScreen
Assay type: binding
Conditions: AlphaScreen; biotin-tagged human Kras loaded with GDP, His-tagged human SOS1; read-out: KRAS G12D-SOS PPI IC50
Summary of the method: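 Energy transfer from nickel-chelate donor beads bound to His-SOS1 to streptavidin acceptor beads bound to biotin-Kras, expressed in E. coli and loaded with GDP after purification, was monitored. Donors were excited at 680 nm; singlet oxygen reaching acceptors gave emission read at 520-620 nm.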

T1 sequence (P01116 1-188 isoform P01116-2 G12D): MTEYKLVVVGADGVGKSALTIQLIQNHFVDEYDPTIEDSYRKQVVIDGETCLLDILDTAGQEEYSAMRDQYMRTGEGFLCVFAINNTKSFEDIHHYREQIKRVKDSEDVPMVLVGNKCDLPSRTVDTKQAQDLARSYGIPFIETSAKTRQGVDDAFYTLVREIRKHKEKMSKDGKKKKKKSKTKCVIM

| SMILES | IC50 [µM] |
| --- | --- |
| CCCC[C@@H]1NC(=O)[C@H](Cc2cccc(Br)c2)NC(=O)CN(C)C(=O)[C@H](Cc2ccc(Cl)cc2)N(C)C(=O)[C@@H]2CCN2C(=O)[C@H](C)N(C)C(=O)[C@H]([C@@H](C)CC)NC(=O)[C@H](CC(C)C)N(C)C(=O)C[C@@H](C(=O)N2CCCCC2)N(C)C(=O)[C@H](CC(C)C)NC(=O)C(C)(C)N(C)C1=O [Compound 1415] ([NMeL]I[NMeA][Aze][NMePhe(4-Cl)][Sar][Phe(3-Br)][Nle][NMeAib]L[NMeD]-Piperidide; lactam N-11) | 0.034 |
| CCCC[C@@H]1NC(=O)[C@H](Cc2cccc(I)c2)NC(=O)CN(C)C(=O)[C@H](CC2CCCCC2)N(C)C(=O)CN(C)C(=O)CN(C)C(=O)[C@H]([C@@H](C)CC)NC(=O)[C@H](CC(C)C)N(C)C(=O)C[C@@H](C(=O)N2CCCCC2)N(C)C(=O)[C@H](CC(C)C)NC(=O)C(C)(C)N(C)C1=O [Compound 1416] ([NMeL]I[Sar][Sar][NMeCha][Sar][Phe(3-I)][Nle][NMeAib]L[NMeD]-Piperidide; lactam N-11) | 0.097 |
| CCCCCC[C@H]1C(=O)N[C@@H]([C@@H](C)CC)C(=O)N(C)CC(=O)N2CC[C@H]2C(=O)N(C)[C@@H](Cc2ccc(OC)cc2)C(=O)N(C)CC(=O)N[C@@H](Cc2cccc(I)c2)C(=O)N[C@@H](CCCC)C(=O)N(C)C(C)(C)C(=O)N[C@@H](CC(C)C)C(=O)N(C)[C@H](C(=O)N2CCCCC2)CC(=O)N1C [Compound 1417] ([NMeAoc(2)]I[Sar][Aze][NMeY](Me)[Sar][Phe(3-I)][Nle][NMeAib]L[NMeD]-Piperidide; lactam N-11) | 0.029 |
| CC[C@H](C)[C@@H]1NC(=O)[C@H](CC(C)C)N(C)C(=O)C[C@@H](C(=O)N2CCCCC2)N(C)C(=O)[C@H](CC(C)C)NC(=O)C(C)(C)N(C)C(=O)[C@H](CC=C(C)C)NC(=O)[C@H](Cc2cccc(I)c2)NC(=O)CN(C)C(=O)[C@H](Cc2ccc(Cl)cc2)N(C)C(=O)[C@@H]2CCN2C(=O)[C@H](C)N(C)C1=O [Compound 1419] ([NMeL]I[NMeA][Aze][NMePhe(4-Cl)][Sar][Phe(3-I)][X10][NMeAib]L[NMeD]-Piperidide; lactam N-11) | 0.046 |
| CCCC[C@@H]1NC(=O)[C@H](Cc2cccc(I)c2)NC(=O)CN(C)C(=O)[C@H](CC2CCCCC2)N(C)C(=O)[C@@H]2CCN2C(=O)CN(C)C(=O)[C@H]([C@@H](C)CC)NC(=O)[C@H](CC(C)C)N(C)C(=O)C[C@@H](C(=O)N2CCCCC2)N(C)C(=O)[C@H](CC(C)C)NC(=O)C(C)(C)N(C)C1=O [Compound 1420] ([NMeL]I[Sar][Aze][NMeCha][Sar][Phe(3-I)][Nle][NMeAib]L[NMeD]-Piperidide; lactam N-11) | 0.089 |
| C=C(C)C[C@@H]1NC(=O)[C@H](Cc2cccc(I)c2)NC(=O)CN(C)C(=O)[C@H](Cc2ccc(Cl)cc2)N(C)C(=O)CN(C)C(=O)CN(C)C(=O)[C@H]([C@@H](C)CC)NC(=O)[C@H](CC(C)C)N(C)C(=O)C[C@@H](C(=O)N2CCCCC2)N(C)C(=O)[C@H](CC(C)C)NC(=O)C(C)(C)N(C)C1=O [Compound 1421] ([NMeL]I[Sar][Sar][NMePhe(4-Cl)][Sar][Phe(3-I)][Leu(4,5-dehydro)][NMeAib]L[NMeD]-Piperidide; lactam N-11) | 0.032 |
| CCCC[C@@H]1NC(=O)[C@H](Cc2cccc(I)c2)NC(=O)CN(C)C(=O)[C@H](Cc2ccc(Cl)cc2)N(C)C(=O)CN(C)C(=O)CN(C)C(=O)[C@H]([C@@H](C)CC)NC(=O)[C@H](CC(C)C)N(C)C(=O)C[C@@H](C(=O)N2CCCCC2)N(C)C(=O)[C@H](CC2CCC2)NC(=O)C(C)(C)N(C)C1=O [Compound 1422] ([NMeL]I[Sar][Sar][NMePhe(4-Cl)][Sar][Phe(3-I)][Nle][NMeAib][Cba][NMeD]-Piperidide; lactam N-11) | 0.016 |
| CCCC[C@@H]1NC(=O)[C@H](Cc2cccc(I)c2)NC(=O)CN(C)C(=O)[C@H](CC2CCCC2)N(C)C(=O)CN(C)C(=O)CN(C)C(=O)[C@H]([C@@H](C)CC)NC(=O)[C@H](CC(C)C)N(C)C(=O)C[C@@H](C(=O)N2CCCCC2)N(C)C(=O)[C@H](CC(C)C)NC(=O)C(C)(C)N(C)C1=O [Compound 1423] ([NMeL]I[Sar][Sar][NMeAla(cPent)][Sar][Phe(3-I)][Nle][NMeAib]L[NMeD]-Piperidide; lactam N-11) | 0.19 |
| C#CC[C@@H]1NC(=O)[C@H](Cc2cccc(I)c2)NC(=O)CN(C)C(=O)[C@H](Cc2ccc(C(F)(F)F)cc2)N(C)C(=O)[C@@H]2CCN2C(=O)CN(C)C(=O)[C@H]([C@@H](C)CC)NC(=O)[C@H](CC(C)C)N(C)C(=O)C[C@@H](C(=O)N2CCCCC2)N(C)C(=O)[C@H](CC(C)C)NC(=O)C(C)(C)N(C)C1=O [Compound 1425] ([NMeL]I[Sar][Aze][NMePhe(4-CF3)][Sar][Phe(3-I)][Pra][NMeAib]L[NMeD]-Piperidide; lactam N-11) | 0.019 |
| C#CC[C@@H]1NC(=O)[C@H](Cc2cccc(I)c2)NC(=O)CN(C)C(=O)[C@H](Cc2ccc(Cl)cc2)N(C)C(=O)CN(C)C(=O)CN(C)C(=O)[C@H]([C@@H](C)CC)NC(=O)[C@H](CC(C)C)N(C)C(=O)C[C@@H](C(=O)N2CCCCC2)N(C)C(=O)[C@H](CC(C)C)NC(=O)C(C)(C)N(C)C1=O [Compound 1426] ([NMeL]I[Sar][Sar][NMePhe(4-Cl)][Sar][Phe(3-I)][Pra][NMeAib]L[NMeD]-Piperidide; lactam N-11) | 0.048 |
| C#CC[C@@H]1NC(=O)[C@H](Cc2cccc(I)c2)NC(=O)CN(C)C(=O)[C@H](Cc2ccc(C(F)(F)F)cc2)N(C)C(=O)[C@@H]2CCN2C(=O)CN(C)C(=O)[C@H]([C@@H](C)CC)NC(=O)[C@H](CC(C)C)N(C)C(=O)C[C@@H](C)N(C)C(=O)[C@H](CC(C)C)NC(=O)C(C)(C)N(C)C1=O [Compound 1427] (cyclo([Aze][NMePhe(4-CF3)][Sar][Phe(3-I)][Pra][NMeAib]L[NMedβ3hAla][NMeL]I[Sar])) | 0.25 |
| C#CC[C@@H]1NC(=O)[C@H](Cc2cccc(I)c2)NC(=O)CN(C)C(=O)[C@H](Cc2ccc(Cl)cc2)N(C)C(=O)[C@@H]2CCN2C(=O)[C@H](C)N(C)C(=O)[C@H]([C@@H](C)CC)NC(=O)[C@H](CC(C)C)N(C)C(=O)C[C@@H](C(=O)N2CCCCC2)N(C)C(=O)[C@H](CC(C)C)NC(=O)C(C)(C)N(C)C1=O [Compound 1428] ([NMeL]I[NMeA][Aze][NMePhe(4-Cl)][Sar][Phe(3-I)][Pra][NMeAib]L[NMeD]-Piperidide; lactam N-11) | 0.042 |
| C=C(C)C[C@@H]1NC(=O)[C@H](Cc2cccc(I)c2)NC(=O)CN(C)C(=O)[C@H](Cc2ccc(Cl)cc2)N(C)C(=O)[C@@H]2CCN2C(=O)[C@H](C)N(C)C(=O)[C@H]([C@@H](C)CC)NC(=O)[C@H](CC(C)C)N(C)C(=O)C[C@@H](C(=O)N2CCCCC2)N(C)C(=O)[C@H](CC(C)C)NC(=O)C(C)(C)N(C)C1=O [Compound 1429] ([NMeL]I[NMeA][Aze][NMePhe(4-Cl)][Sar][Phe(3-I)][Leu(4,5-dehydro)][NMeAib]L[NMeD]-Piperidide; lactam N-11) | 0.044 |
| CCCC[C@@H]1NC(=O)[C@H](Cc2cccc(I)c2)NC(=O)CN(C)C(=O)[C@H](Cc2ccc(Cl)cc2)N(C)C(=O)CN(C)C(=O)CN(C)C(=O)[C@H]([C@@H](C)CC)NC(=O)[C@H](CC(C)C)N(C)C(=O)C[C@@H](C(=O)N2CCCC2)N(C)C(=O)[C@H](CCc2ccccc2)NC(=O)C(C)(C)N(C)C1=O [Compound 1430] ([NMeL]I[Sar][Sar][NMePhe(4-Cl)][Sar][Phe(3-I)][Nle][NMeAib][hPhe][NMeD]-Pyrrolidide; lactam N-11) | 0.4 |
| C=CC[C@@H]1NC(=O)[C@H](Cc2cccc(I)c2)NC(=O)CN(C)C(=O)[C@H](Cc2ccc(Cl)cc2)N(C)C(=O)CN(C)C(=O)CN(C)C(=O)[C@H]([C@@H](C)CC)NC(=O)[C@H](CC(C)C)N(C)C(=O)C[C@@H](C(=O)N2CCCC2)N(C)C(=O)[C@H](CC(C)C)NC(=O)C(C)(C)N(C)C1=O [Compound 1431] ([NMeL]I[Sar][Sar][NMePhe(4-Cl)][Sar][Phe(3-I)][AllylGly][NMeAib]L[NMeD]-Pyrrolidide; lactam N-11) | 0.22 |
| CCCC[C@@H]1NC(=O)[C@H](Cc2cccc(I)c2)NC(=O)CN(C)C(=O)[C@H](CC2CCCC2)N(C)C(=O)[C@@H]2CCN2C(=O)[C@H](C)N(C)C(=O)[C@H]([C@@H](C)CC)NC(=O)[C@H](CC(C)C)N(C)C(=O)C[C@@H](C(=O)N2CCCCC2)N(C)C(=O)[C@H](CC(C)C)NC(=O)C(C)(C)N(C)C1=O [Compound 1432] ([NMeL]I[NMeA][Aze][NMeAla(cPent)][Sar][Phe(3-I)][Nle][NMeAib]L[NMeD]-Piperidide; lactam N-11) | 0.26 |
| CCCC[C@@H]1NC(=O)[C@H](Cc2cccc(I)c2)NC(=O)CN(C)C(=O)[C@H](Cc2ccc(C(F)(F)F)cc2)N(C)C(=O)CN(C)C(=O)CN(C)C(=O)[C@H]([C@@H](C)CC)NC(=O)[C@H](CC(C)C)N(C)C(=O)C[C@@H](C(=O)N2CCCCC2)N(C)C(=O)[C@H](CCC(C)C)NC(=O)C(C)(C)N(C)C1=O [Compound 1433] ([NMeL]I[Sar][Sar][NMePhe(4-CF3)][Sar][Phe(3-I)][Nle][NMeAib][hLeu][NMeD]-Piperidide; lactam N-11) | 0.029 |
| CC[C@H](C)[C@@H]1NC(=O)[C@H](CC(C)C)N(C)C(=O)C[C@@H](C(=O)N2CCCCC2)N(C)C(=O)[C@H](C2CCCC2)N(C)C(=O)C2(CCCC2)NC(=O)[C@@H](Cc2ccccc2)N(C)C(=O)[C@H](CCc2ccc(C(F)(F)F)c(Cl)c2)NC(=O)CN(C)C(=O)[C@H](CC2CCCCC2)N(C)C(=O)[C@@H]2CCN2C(=O)[C@H](C)N(C)C1=O [Compound 1434] ([NMeL]I[NMeA][Aze][NMeCha][Sar][hPhe(3-Cl-4-CF3)][dNMeF][Ac5c][NMeGly(cPent)][NMeD]-Piperidide; lactam N-11) | 0.15 |
